According to patent US20250122219A1 (priority 2023, published 2025):
pEC50: −log10 of the molar value.

Assays:
HIV-1 (IIIB) = assay: Antiviral assay in MT-4 cells; format: cell-based; conditions: Human immunodeficiency virus 1, MT4, 120 h; HIV-1 IIIB in MT-4 cells, 5 days incubation, Cell Titer Glo; read-out: MT4 EC50
Method in brief: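 HIV-1 IIIB-infected MT-4 cells (fresh 1:250 virus stock dilution; mock-infected controls) incubated 5 days at 37 °C with serially diluted compounds in RPMI/10% FBS; 5 μM AZT as positive control. Cell viability read by CellTiter-Glo luminescence as measure of protection from viral replication.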

[1] = Cytotoxicity assay in MT-4 cells; format: cell-based; conditions: human; uninfected MT-4 cells, 5 days incubation, Cell Titer Glo; read-out: MT4 CC50
Method in brief: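 Uninfected MT-4 cells exposed to serially diluted compounds in RPMI with 10% FBS for 5 days at 37 °C. Viability by Cell Titer Glo chemiluminescence. Puromycin […] as baseline cytotoxicity control.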

| pEC50 (HIV-1 (IIIB)) | SMILES | CC50 at 5 days [1] [nM] |
| --- | --- | --- |
| 8.65 | CCC(=O)OCOc1c2n(cc(C(=O)NCc3ccc(F)cc3F)c1=O)[C@@H]1CN(C2=O)[C@@H](C)CC[C@]12CC(OC)=NO2 [Example 85, (((3′S,5S,7′R)-10′-((2,4-difluorobenzyl)carbamoyl)-3-methoxy-3′-methyl-1′,11′-dioxo-1′,4′,5′,11′-tetrahydro-3′H,4H,7′H-spiro[isoxazole-5,6′-[2,7]methanopyrido[1,2-a][1,4]diazonin]-12′-yl)oxy)methyl propionate] | 28400 |
| 8.60 | CCC(=O)OCOc1c2n(cc(C(=O)NCc3ccc(F)cc3F)c1=O)[C@@H]1CN(C2=O)[C@@H](C)CC[C@]12CC(C)=NO2 [Example 86, (((3′S,5S,7′R)-10′-((2,4-difluorobenzyl)carbamoyl)-3,3′-dimethyl-1′,11′-dioxo-1′,4′,5′,11′-tetrahydro-3′H,4H,7′H-spiro[isoxazole-5,6′-[2,7]methanopyrido[1,2-a][1,4]diazonin]-12′-yl)oxy)methyl propionate] | 21000 |
| 8.74 | CCCC(=O)OCOc1c2n(cc(C(=O)NCc3ccc(F)cc3F)c1=O)[C@@H]1CN(C2=O)[C@@H](C)CC[C@]12CC(OC)=NO2 [Example 87, (((3′S,5S,7′R)-10′-((2,4-difluorobenzyl)carbamoyl)-3-methoxy-3′-methyl-1′,11′-dioxo-1′,4′,5′,11′-tetrahydro-3′H,4H,7′H-spiro[isoxazole-5,6′-[2,7]methanopyrido[1,2-a][1,4]diazonin]-12′-yl)oxy)methyl butyrate] | 16400 |
| 8.75 | CCCC(=O)OCOc1c2n(cc(C(=O)NCc3ccc(F)cc3F)c1=O)[C@@H]1CN(C2=O)[C@@H](C)CC[C@]12CC(C)=NO2 [Example 88, (((3′S,5S,7′R)-10′-((2,4-difluorobenzyl)carbamoyl)-3,3′-dimethyl-1′,11′-dioxo-1′,4′,5′,11′-tetrahydro-3′H,4H,7′H-spiro[isoxazole-5,6′-[2,7]methanopyrido[1,2-a][1,4]diazonin]-12′-yl)oxy)methyl butyrate] | 20400 |
| 9.70 | CCCCC(=O)OCOc1c2n(cc(C(=O)NCc3ccc(F)cc3F)c1=O)[C@@H]1CN(C2=O)[C@@H](C)CC[C@]12CC(OC)=NO2 [Example 89, (((3′S,5S,7′R)-10′-((2,4-difluorobenzyl)carbamoyl)-3-methoxy-3′-methyl-1′,11′-dioxo-1′,4′,5′,11′-tetrahydro-3′H,4H,7′H-spiro[isoxazole-5,6′-[2,7]methanopyrido[1,2-a][1,4]diazonin]-12′-yl)oxy)methyl pentanoate] | 15800 |
| 9.75 | CCCCC(=O)OCOc1c2n(cc(C(=O)NCc3ccc(F)cc3F)c1=O)[C@@H]1CN(C2=O)[C@@H](C)CC[C@]12CC(C)=NO2 [Example 90, (((3′S,5S,7′R)-10′-((2,4-difluorobenzyl)carbamoyl)-3,3′-dimethyl-1′,11′-dioxo-1′,4′,5′,11′-tetrahydro-3′H,4H,7′H-spiro[isoxazole-5,6′-[2,7]methanopyrido[1,2-a][1,4]diazonin]-12′-yl)oxy)methyl pentanoate] | 18200 |
| 8.73 | CCCCCC(=O)OCOc1c2n(cc(C(=O)NCc3ccc(F)cc3F)c1=O)[C@@H]1CN(C2=O)[C@@H](C)CC[C@]12CC(OC)=NO2 [Example 91, (((3′S,5S,7′R)-10′-((2,4-difluorobenzyl)carbamoyl)-3-methoxy-3′-methyl-1′,11′-dioxo-1′,4′,5′,11′-tetrahydro-3′H,4H,7′H-spiro[isoxazole-5,6′-[2,7]methanopyrido[1,2-a][1,4]diazonin]-12′-yl)oxy)methyl hexanoate] | 37300 |
| 8.67 | CCCCCC(=O)OCOc1c2n(cc(C(=O)NCc3ccc(F)cc3F)c1=O)[C@@H]1CN(C2=O)[C@@H](C)CC[C@]12CC(C)=NO2 [Example 92, (((3′S,5S,7′R)-10′-((2,4-difluorobenzyl)carbamoyl)-3,3′-dimethyl-1′,11′-dioxo-1′,4′,5′,11′-tetrahydro-3′H,4H,7′H-spiro[isoxazole-5,6′-[2,7]methanopyrido[1,2-a][1,4]diazonin]-12′-yl)oxy)methyl hexanoate] | 21500 |
| 8.58 | CCCCCCC(=O)OCOc1c2n(cc(C(=O)NCc3ccc(F)cc3F)c1=O)[C@@H]1CN(C2=O)[C@@H](C)CC[C@]12CC(OC)=NO2 [Example 93, (((3′S,5S,7′R)-10′-((2,4-difluorobenzyl)carbamoyl)-3-methoxy-3′-methyl-1′,11′-dioxo-1′,4′,5′,11′-tetrahydro-3′H,4H,7′H-spiro[isoxazole-5,6′-[2,7]methanopyrido[1,2-a][1,4]diazonin]-12′-yl)oxy)methyl heptanoate] | 19500 |
| 8.56 | CCCCCCC(=O)OCOc1c2n(cc(C(=O)NCc3ccc(F)cc3F)c1=O)[C@@H]1CN(C2=O)[C@@H](C)CC[C@]12CC(C)=NO2 [Example 94, (((3′S,5S,7′R)-10′-((2,4-difluorobenzyl)carbamoyl)-3,3′-dimethyl-1′,11′-dioxo-1′,4′,5′,11′-tetrahydro-3′H,4H,7′H-spiro[isoxazole-5,6′-[2,7]methanopyrido[1,2-a][1,4]diazonin]-12′-yl)oxy)methyl heptanoate] | 17600 |
| 9.00 | CCCCCCCC(=O)OCOc1c2n(cc(C(=O)NCc3ccc(F)cc3F)c1=O)[C@@H]1CN(C2=O)[C@@H](C)CC[C@]12CC(OC)=NO2 [Example 95, (((3′S,5S,7′R)-10′-((2,4-difluorobenzyl)carbamoyl)-3-methoxy-3′-methyl-1′,11′-dioxo-1′,4′,5′,11′-tetrahydro-3′H,4H,7′H-spiro[isoxazole-5,6′-[2,7]methanopyrido[1,2-a][1,4]diazonin]-12′-yl)oxy)methyl octanoate] | ≥ 50000 |
| 9.25 | CCCCCCCC(=O)OCOc1c2n(cc(C(=O)NCc3ccc(F)cc3F)c1=O)[C@@H]1CN(C2=O)[C@@H](C)CC[C@]12CC(C)=NO2 [Example 96, (((3′S,5S,7′R)-10′-((2,4-difluorobenzyl)carbamoyl)-3,3′-dimethyl-1′,11′-dioxo-1′,4′,5′,11′-tetrahydro-3′H,4H,7′H-spiro[isoxazole-5,6′-[2,7]methanopyrido[1,2-a][1,4]diazonin]-12′-yl)oxy)methyl octanoate] | ≥ 50000 |
| 8.34 | CCCCCCCCC(=O)OCOc1c2n(cc(C(=O)NCc3ccc(F)cc3F)c1=O)[C@@H]1CN(C2=O)[C@@H](C)CC[C@]12CC(OC)=NO2 [Example 97, (((3′S,5S,7′R)-10′-((2,4-difluorobenzyl)carbamoyl)-3-methoxy-3′-methyl-1′,11′-dioxo-1′,4′,5′,11′-tetrahydro-3′H,4H,7′H-spiro[isoxazole-5,6′-[2,7]methanopyrido[1,2-a][1,4]diazonin]-12′-yl)oxy)methyl nonanoate] | ≥ 50000 |
| 8.41 | CCCCCCCCC(=O)OCOc1c2n(cc(C(=O)NCc3ccc(F)cc3F)c1=O)[C@@H]1CN(C2=O)[C@@H](C)CC[C@]12CC(C)=NO2 [Example 98, (((3′S,5S,7′R)-10′-((2,4-difluorobenzyl)carbamoyl)-3,3′-dimethyl-1′,11′-dioxo-1′,4′,5′,11′-tetrahydro-3′H,4H,7′H-spiro[isoxazole-5,6′-[2,7]methanopyrido[1,2-a][1,4]diazonin]-12′-yl)oxy)methyl nonanoate] | ≥ 50000 |
| 9.33 | CCCCCCCCCC(=O)OCOc1c2n(cc(C(=O)NCc3ccc(F)cc3F)c1=O)[C@@H]1CN(C2=O)[C@@H](C)CC[C@]12CC(OC)=NO2 [Example 99, (((3′S,5S,7′R)-10′-((2,4-difluorobenzyl)carbamoyl)-3-methoxy-3′-methyl-1′,11′-dioxo-1′,4′,5′,11′-tetrahydro-3′H,4H,7′H-spiro[isoxazole-5,6′-[2,7]methanopyrido[1,2-a][1,4]diazonin]-12′-yl)oxy)methyl decanoate] | ≥ 50000 |
| 9.61 | CCCCCCCCCC(=O)OCOc1c2n(cc(C(=O)NCc3ccc(F)cc3F)c1=O)[C@@H]1CN(C2=O)[C@@H](C)CC[C@]12CC(C)=NO2 [Example 100, (((3′S,5S,7′R)-10′-((2,4-difluorobenzyl)carbamoyl)-3,3′-dimethyl-1′,11′-dioxo-1′,4′,5′,11′-tetrahydro-3′H,4H,7′H-spiro[isoxazole-5,6′-[2,7]methanopyrido[1,2-a][1,4]diazonin]-12′-yl)oxy)methyl decanoate] | ≥ 50000 |
| 8.24 | CCCCCCCCCCCC(=O)OCOc1c2n(cc(C(=O)NCc3ccc(F)cc3F)c1=O)[C@@H]1CN(C2=O)[C@@H](C)CC[C@]12CC(OC)=NO2 [Example 101, (((3′S,5S,7′R)-10′-((2,4-difluorobenzyl)carbamoyl)-3-methoxy-3′-methyl-1′,11′-dioxo-1′,4′,5′,11′-tetrahydro-3′H,4H,7′H-spiro[isoxazole-5,6′-[2,7]methanopyrido[1,2-a][1,4]diazonin]-12′-yl)oxy)methyl dodecanoate] | ≥ 50000 |
| 8.30 | CCCCCCCCCCCC(=O)OCOc1c2n(cc(C(=O)NCc3ccc(F)cc3F)c1=O)[C@@H]1CN(C2=O)[C@@H](C)CC[C@]12CC(C)=NO2 [Example 102, (((3′S,5S,7′R)-10′-((2,4-difluorobenzyl)carbamoyl)-3,3′-dimethyl-1′,11′-dioxo-1′,4′,5′,11′-tetrahydro-3′H,4H,7′H-spiro[isoxazole-5,6′-[2,7]methanopyrido[1,2-a][1,4]diazonin]-12′-yl)oxy)methyl dodecanoate] | ≥ 50000 |
